Source: US20070154393A1, “Bioassay for volatile low molecular weight insecticides and methods of use” (priority 2005, published 2007)
Like-named read-outs stand apart in the source and are kept apart here.

How the values were obtained:
[1] = system: insecticide-susceptible Drosophila melanogaster (Canton-S strain); type: in vivo; conditions: for Slope ± Std. Error (best-fit probit mortality line): Table 1, 24 hr exposure, probit analysis; for Slope ± Std. Error (best-fit probit mortality line) / Slope ± Std. Error (probit mortality line): Canton-S; for Slope ± Std. Error (probit mortality line): 24 hr
Procedure: The insecticide-susceptible Canton-S strain of Drosophila was obtained from the Bloomington Drosophila stock center (Indiana University, Bloomington, Ind.), and used exclusively in all studies. Flies were reared in 100-ml vials capped with acetate plugs (Fisher Scientific; Suwannee, Ga.) on a JAZZ-MIX diet (Fisher) prepared with a 2:1 ratio of water to apple juice. Flies were reared on a 12:12 photocycle at 24° C. and ambient relative humidity. Mixed-sex adults, less than 1-wk old, were used in bioassays.
Flies were briefly anesthetized in rearing vials with a pulse of CO2 and transferred to a CO2 flowbed (Genesee Scientific; San Diego, Calif.). Using a camel hair brush and a 5×5 cm sheet of rice paper, ten flies were placed into 7.0 ml dram vials. Prior to adding flies, each vial received a 0.5 cm^3 block of rearing diet that had been sufficiently dried on a paper towel to remove excessive moisture. The vials were then capped with open-top septum caps (Fisher) that were covered with fine mesh. The mesh was applied to the septum caps in advance using hot glue; it prevented fly escape but readily permitted gas exchange. The flies were allowed 1-hr to recover from the CO2 anesthesia. After one hour, single vials with flies were placed into 0.5 L glass jars, along with a filter paper tent (see FIG. 1). In a fume hood, filter paper tents were treated with insecticide dilutions or acetone for controls. The jars were then rapidly closed tightly with a metal lid. After 24 hours of exposure, mortality was scored with the aid of a magnifying glass.
All test compounds and solvents were >99% purity, and were purchased from Sigma-Aldrich Chemical (Milwaukee, Wis.). See Table 1 for a listing of the test compounds and their structures. Insecticide stock solutions were prepared at a standard concentration of 100 μg/μl in analytical grade acetone. For liquid insecticidal compounds, density in mg/μl was used to calculate weight on a per-volume basis. Stock solutions were held at −20° C. in sealed amber vials. In bioassay jars, filter paper tents were treated with stock volumes ranging from 2 to 20 μl, depending on the inherent toxicity of the test compound. These volumes of insecticide stock provided test concentrations of 200 to 2000 μg insecticide per replicate jar. A range of 4-5 concentrations plus a control were tested for each insecticide, and each range was repeated five times over at least three days. Controls received a volume of acetone identical to the highest insecticide volume that was tested (i.e., 10 μl for menthofuran; 20 μl for all other insecticides). Between uses, bioassay jars and lids were washed in a dishwasher, then baked 12-16 hr at 90° C. in a drying oven.
Probit and regression analyses were performed using the PROC PROBIT and PROC REG procedures, respectively. […] If control mortality ever exceeded 10% in a given replicate, that replicate was discarded.
(§1) Four Drosophila strains were used, all obtained from the Bloomington Drosophila Stock Center (Indiana University; Bloomington, Ind.). The Canton-S strain was used as the insecticide-susceptible standard. The Hikone-R strain is metabolically-resistant with elevated cytochrome P450 levels (Waters et al., 1984; Sundseth et al., 1989; Le Goff et al., 2003; Festucci-Buselli et al., 2005). Hikone-R is resistant to a number of insecticides, including malathion, DDT and neonicotinoids (Sundseth et al., 1989; Daborn et al., 2001). Two resistant neurological-mutant strains were also tested. […] Flies were reared in 100-ml vials capped with acetate plugs (Fisher Scientific; Suwanee, Ga.) on a commercial diet (JAZZ-MIX; Fisher Scientific). Flies were reared on a 12:12 photocycle at 24° C. and 60% relative humidity. Mixed-sex adults, less than 1-wk old, were used in bioassays.

[2] = system: insecticide-susceptible Canton-S strain of Drosophila; type: in vivo; conditions: for Slope ± Std. Error (probit mortality line): Table 3, Canton-S, 24 hr
Procedure: (§2) All experimental materials were purchased from Sigma-Aldrich-Fluka (Milwaukee, Wis.) and were of 99% purity or greater. […] All volatile insecticide stocks were prepared at 100 μg/μl in analytical grade acetone. Rather than weigh the highly volatile liquid insecticides (i.e., all compounds except benzothiophene), weight was determined based on the density-volume relationship of each compound. Four serial dilutions were prepared and tested for each insecticide as described previously (Scharf et al., 2006). The insecticide synergists PBO (piperonyl butoxide) and DEF (SSS-tributyl-phosphoro-trithioate) were obtained from Fluka Chemical Co. (Basel, Switzerland) and Mobay Chemical Co. (Kansas City, Mo.). Both synergists were >95% purity. Synergist stocks were prepared at 100 μg/ml in analytical grade acetone.
(§3) Volatility bioassays were conducted exactly as described in a previous report (Scharf et al., 2006). Briefly, bioassays took place in 0.5-l glass jars with metal lids. Mixed-sex flies were isolated from lab colonies and placed in 4-ml dram vials in groups of ten, along with a dried piece of laboratory diet. The dram vials were capped with open-top septum caps that were covered with fine mesh (held in place by non-toxic glue). For bioassays, the assembled dram vials were placed into the 0.5-l jars along with a folded filter paper “tent” (Whatman #1; Vineland, N.J.). The filter paper was treated with either an insecticide dilution or acetone, the jar was sealed with the metal lid, and the bioassay proceeded for 24-hr at room temperature. Mortality was scored based on a complete lack of movement by the flies. Four concentrations plus an acetone control were tested for all insecticides. Between five and ten replicates were performed for each concentration range on each strain-insecticide combination. Synergist bioassays were performed with a slight modification. Synergist stocks were applied to dram vials at 100 μl per vial to provide assay concentrations of 10 μg per vial. […] After treatment, vials were held at an angle in a fume hood and rotated ¼-turn each minute until the acetone evaporated. Flies and diet were added as above and held for 1-hr. Assays were initiated, run, and scored as above.
(§4) Probit analysis was performed using PROC PROBIT in the SAS software package (SAS Institute; Cary, N.C.). If control mortality ever exceeded 10% in a given replicate, that replicate was discarded. Toxicity and synergist ratios at LC50 were compared statistically using the calculation described by Robertson and Preisler (1992). Using this procedure, ratios with 95% confidence intervals were calculated using a spreadsheet-based program. With this calculation, if confidence intervals include 1.0 then ratios are considered non-significant (p>0.05; Robertson and Preisler, 1992).

[3] = system: metabolically resistant Hikone-R strain of Drosophila; type: in vivo; conditions: Table 3, Hikone-R, 24 hr
Procedure: as §2, §3, §4

[4] = system: Rd1 (Rdl-R) strain of Drosophila (GABA-gated chloride channel point mutation); type: in vivo, Drosophila melanogaster; conditions: Table 2; Rdl-R, 24 hr
Source text: as §1, §2, §3, §4

[5] = Table 2, data taken from Scharf et al. (2006)

| Substance | Slope ± Std. Error (best-fit probit mortality line) [1] | Slope ± Std. Error (probit mortality line) [1, 5] | Slope ± Std. Error (probit mortality line) ([1]; Table 3, no synergist) | LC50 (95% CL) ([1]; in vivo) | Slope ± Std. Error (probit mortality line) ([2]; +DEF 10 μg per bioassay vial) | Slope ± Std. Error (probit mortality line) ([2]; +PBO 10 μg per bioassay vial) | DEF synergism ratio (LC50 with synergist÷LC50 without) ([2]; esterase inhibitor DEF, reduction in toxicity, strain not given, fits Canton-S of Table 3) | Slope ± Std. Error (probit mortality line) ([3]; +DEF 10 μg per bioassay vial) | Slope ± Std. Error (probit mortality line) ([3]; +PBO 10 μg per bioassay vial) | Slope ± Std. Error (probit mortality line) [4] |
| --- | --- | --- | --- | --- | --- | --- | --- | --- | --- | --- |
| ethyl formate | 5.18 ± 1.07 | 5.18 ± 1.07 | 5.18 ± 1.07 | 1656.0 (1486.0 − 1917.0) μg/jar | 1.73 ± 1.35 | 4.74 ± 1.44 | > 12 fold | 14.17 ± 1.80 | 5.17 ± 1.28 | 6.38 ± 1.91 |
| methyl formate | 3.27 ± 0.95 | 3.27 ± 0.95 | 3.27 ± 0.95 |  | 3.98 ± 1.52 | 49.50 |  | 1.91 ± 0.60 | 51.10 | 9.41 ± 2.14 |
